Tests used:
[1] = biological target: T1, Alpha-1A adrenergic receptor (Rattus norvegicus, UniProt P43140); test: DRUGMATRIX: Alpha-1A adrenergic receptor radioligand binding (ligand: prazosin); format: cell membranes, Wistar, Submaxillary gland, Membrane; conditions: Not Active = under 50% inhibition at 10 µM
T1 sequence (P43140 whole entry): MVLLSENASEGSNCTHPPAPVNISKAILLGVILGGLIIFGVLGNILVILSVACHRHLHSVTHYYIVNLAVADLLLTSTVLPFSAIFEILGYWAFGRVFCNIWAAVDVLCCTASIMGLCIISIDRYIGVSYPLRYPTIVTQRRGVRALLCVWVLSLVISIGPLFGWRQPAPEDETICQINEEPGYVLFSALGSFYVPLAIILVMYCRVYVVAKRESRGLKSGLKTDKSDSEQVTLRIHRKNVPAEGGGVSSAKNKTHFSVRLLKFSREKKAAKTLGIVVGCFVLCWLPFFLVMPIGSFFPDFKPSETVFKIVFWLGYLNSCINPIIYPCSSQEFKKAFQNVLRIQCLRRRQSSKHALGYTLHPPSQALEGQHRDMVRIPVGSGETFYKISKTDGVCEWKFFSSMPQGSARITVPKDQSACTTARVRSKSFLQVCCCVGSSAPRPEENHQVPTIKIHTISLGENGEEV

[2] = DRUGMATRIX: Nicotinic Acetylcholine radioligand binding (ligand: [125I] Epibatidine); format: cell membranes, Membrane; conditions: imr-32; Not Active = under 50% inhibition at 10 µM
[3] = biological target: T2, Alpha-1B adrenergic receptor (Rattus norvegicus, UniProt P15823); test: DRUGMATRIX: Alpha-1B adrenergic receptor radioligand binding (ligand: prazosin); format: cell membranes, Wistar, Liver, Membrane; conditions: Not Active = under 50% inhibition at 10 µM
T2 sequence (P15823 whole entry): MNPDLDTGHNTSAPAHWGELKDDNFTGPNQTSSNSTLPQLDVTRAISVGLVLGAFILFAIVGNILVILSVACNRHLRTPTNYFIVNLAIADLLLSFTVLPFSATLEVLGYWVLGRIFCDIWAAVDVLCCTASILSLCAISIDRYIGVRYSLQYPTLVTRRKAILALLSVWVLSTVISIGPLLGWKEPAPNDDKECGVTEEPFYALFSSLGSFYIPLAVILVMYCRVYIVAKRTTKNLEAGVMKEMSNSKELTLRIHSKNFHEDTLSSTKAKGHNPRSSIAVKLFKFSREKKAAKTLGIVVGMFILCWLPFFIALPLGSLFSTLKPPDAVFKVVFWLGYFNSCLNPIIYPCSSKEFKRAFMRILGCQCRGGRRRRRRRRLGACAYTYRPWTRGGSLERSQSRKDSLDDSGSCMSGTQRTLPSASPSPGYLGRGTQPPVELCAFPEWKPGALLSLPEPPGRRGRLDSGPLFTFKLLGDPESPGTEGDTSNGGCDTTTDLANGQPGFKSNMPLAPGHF

[4] = biological target: T3, Cysteinyl leukotriene receptor 1 (Homo sapiens, UniProt Q9Y271); format: cell membranes, CHO-K1, Membrane; conditions: cho-k1; further: in other assays of this panel Not Active means under 50% inhibition at 10 µM
T3 sequence (Q9Y271 whole entry): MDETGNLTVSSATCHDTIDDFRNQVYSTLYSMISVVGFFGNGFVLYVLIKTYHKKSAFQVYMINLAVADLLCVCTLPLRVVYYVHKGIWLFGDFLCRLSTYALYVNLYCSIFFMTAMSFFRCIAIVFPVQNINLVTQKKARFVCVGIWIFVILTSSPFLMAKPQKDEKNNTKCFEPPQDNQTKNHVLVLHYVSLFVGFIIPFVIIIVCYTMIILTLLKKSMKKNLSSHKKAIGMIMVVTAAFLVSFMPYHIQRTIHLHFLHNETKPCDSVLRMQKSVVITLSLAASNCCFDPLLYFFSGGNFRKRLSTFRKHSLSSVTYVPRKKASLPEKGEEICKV

[5] = biological target: T4, Muscarinic acetylcholine receptor M4 (Homo sapiens, UniProt P08173); format: cell membranes, CHO-K1, Membrane; conditions: cho-k1; further: in other assays of this panel Not Active means under 50% inhibition at 10 µM
T4 sequence (P08173 whole entry): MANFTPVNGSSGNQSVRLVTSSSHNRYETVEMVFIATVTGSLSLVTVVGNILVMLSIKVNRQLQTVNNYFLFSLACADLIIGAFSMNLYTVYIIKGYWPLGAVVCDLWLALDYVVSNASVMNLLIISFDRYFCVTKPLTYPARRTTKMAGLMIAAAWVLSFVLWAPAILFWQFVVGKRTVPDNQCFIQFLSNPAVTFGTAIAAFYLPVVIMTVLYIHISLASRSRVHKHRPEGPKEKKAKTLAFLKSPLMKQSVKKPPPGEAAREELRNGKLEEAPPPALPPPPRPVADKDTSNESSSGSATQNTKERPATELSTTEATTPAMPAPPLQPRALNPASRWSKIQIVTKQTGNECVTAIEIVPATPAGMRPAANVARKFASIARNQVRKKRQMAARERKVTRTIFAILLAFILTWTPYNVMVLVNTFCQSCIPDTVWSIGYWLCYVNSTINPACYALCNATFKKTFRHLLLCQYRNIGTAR

[6] = biological target: C-C chemokine receptor type 5 (Homo sapiens, UniProt P51681); format: cell membranes, HEK293, Membrane; conditions: hek293; further: in other assays of this panel Not Active means under 50% inhibition at 10 µM
[7] = biological target: Sodium-dependent noradrenaline transporter (Homo sapiens, UniProt P23975); test: DRUGMATRIX: Norepinephrine Transporter radioligand binding (ligand: [125I] RTI-55); format: cell membranes, MDCK, Membrane; conditions: Not Active = under 50% inhibition at 10 µM; for Ki: read-out: Ki
Sequence of Sodium-dependent noradrenaline transporter (P23975 whole entry): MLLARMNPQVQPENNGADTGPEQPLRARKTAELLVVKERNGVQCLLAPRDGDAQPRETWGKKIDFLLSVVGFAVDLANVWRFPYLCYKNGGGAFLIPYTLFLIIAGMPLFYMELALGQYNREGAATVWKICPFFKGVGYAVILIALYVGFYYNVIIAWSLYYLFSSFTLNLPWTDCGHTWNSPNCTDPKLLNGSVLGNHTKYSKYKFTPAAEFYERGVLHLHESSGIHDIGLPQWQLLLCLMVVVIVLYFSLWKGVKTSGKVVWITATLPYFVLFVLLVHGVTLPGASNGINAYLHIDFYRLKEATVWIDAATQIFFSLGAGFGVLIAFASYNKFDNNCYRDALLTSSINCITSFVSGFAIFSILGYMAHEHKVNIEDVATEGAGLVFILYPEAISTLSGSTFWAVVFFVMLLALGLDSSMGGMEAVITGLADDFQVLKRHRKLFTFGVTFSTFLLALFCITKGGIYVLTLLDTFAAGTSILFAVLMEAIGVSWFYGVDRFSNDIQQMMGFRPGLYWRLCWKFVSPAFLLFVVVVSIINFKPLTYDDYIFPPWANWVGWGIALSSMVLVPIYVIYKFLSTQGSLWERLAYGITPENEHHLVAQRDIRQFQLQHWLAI

Sequence of C-C chemokine receptor type 5 (P51681 whole entry): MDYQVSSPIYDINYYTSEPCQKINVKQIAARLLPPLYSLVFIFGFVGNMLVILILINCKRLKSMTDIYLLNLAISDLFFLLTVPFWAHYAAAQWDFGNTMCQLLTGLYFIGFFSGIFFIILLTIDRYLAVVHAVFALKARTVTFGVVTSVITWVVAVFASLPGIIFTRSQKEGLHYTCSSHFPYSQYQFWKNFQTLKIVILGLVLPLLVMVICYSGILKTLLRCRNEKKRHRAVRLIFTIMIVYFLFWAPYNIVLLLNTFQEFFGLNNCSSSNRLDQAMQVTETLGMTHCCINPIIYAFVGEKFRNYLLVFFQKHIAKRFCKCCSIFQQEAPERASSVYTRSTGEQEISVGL

Compound | IC50 [1] | IC50 [2] | Ki [2] | IC50 [3] | IC50 [4] | IC50 [5] | IC50 [6] | IC50 ([7]; mdck) | IC50 ([7]; read-out: IC50) | Ki [7]
Cn1c(=O)c2c(ncn2CC2OCCO2)n(C)c1=O [DOXOFYLLINE] | Not Active | Not Active | Not Active | Not Active | Not Active | Not Active | Not Active | Not Active | – | –
CC[C@@H](CO)NCCN[C@@H](CC)CO [ETHAMBUTOL] | Not Active | Not Active | Not Active | Not Active | Not Active | Not Active | Not Active | Not Active | – | –
O=C(C1CCCCC1)N1CC(=O)N2CCc3ccccc3C2C1 (stereo unspecified) [PRAZIQUANTEL] | Not Active | Not Active | Not Active | Not Active | Not Active | Not Active | Not Active | Not Active | – | –
C[C@]12CC[C@@H]3c4ccc(OC(=O)c5ccccc5)cc4CC[C@H]3[C@@H]1CC[C@@H]2O [ESTRADIOL BENZOATE] | Not Active | Not Active | Not Active | Not Active | Not Active | Not Active | Not Active | – | 17.2 µM | 17.1 µM
NC(=O)NO [HYDROXYUREA] | Not Active | Not Active | Not Active | Not Active | Not Active | Not Active | Not Active | Not Active | – | –
C#C[C@]1(OC(C)=O)CC[C@H]2[C@@H]3CCC4=CC(=O)CC[C@@H]4[C@H]3CC[C@@]21C [NORETHINDRONE ACETATE] | Not Active | Not Active | Not Active | Not Active | Not Active | Not Active | Not Active | Not Active | – | –
CC(=O)Nc1c(I)c(NC(C)=O)c(I)c(C(=O)O)c1I [DIATRIZOIC ACID] | Not Active | Not Active | Not Active | Not Active | Not Active | Not Active | Not Active | Not Active | – | –
C[C@@H]1C[C@@H]([C@H](O)CC2CC(=O)NC(=O)C2)C(=O)[C@@H](C)C1 [CYCLOHEXIMIDE] | Not Active | Not Active | Not Active | Not Active | Not Active | Not Active | Not Active | Not Active | – | –
CCN1CC(CCN2CCOCC2)C(c2ccccc2)(c2ccccc2)C1=O (stereo unspecified) [DOXAPRAM] | Not Active | Not Active | Not Active | Not Active | Not Active | Not Active | Not Active | Not Active | – | –
O=C1CC[C@H](N2C(=O)c3ccccc3C2=O)C(=O)N1 | Not Active | Not Active | Not Active | Not Active | Not Active | Not Active | Not Active | Not Active | – | –
ClC(Cl)Cl [CHLOROFORM] | Not Active | Not Active | Not Active | Not Active | Not Active | Not Active | Not Active | Not Active | – | –
CCCN(CCC)C(=O)C(CCC(=O)O)NC(=O)c1ccccc1 (stereo unspecified) [PROGLUMIDE] | Not Active | Not Active | Not Active | Not Active | Not Active | Not Active | Not Active | Not Active | – | –
O=C1CC2(CCCC2)CC(=O)N1CCCCN1CCN(c2ncccn2)CC1 [BUSPIRONE] | – | Not Active | Not Active | Not Active | Not Active | Not Active | Not Active | Not Active | – | –
C#C[C@]1(O)CC[C@H]2[C@@H]3CCc4cc(OC)ccc4[C@H]3CC[C@@]21C [MESTRANOL] | Not Active | Not Active | Not Active | Not Active | Not Active | Not Active | Not Active | – | 1.38 µM | 1.37 µM
CC(=O)Nc1ccc(O)cc1 [ACETAMINOPHEN] | Not Active | Not Active | Not Active | Not Active | Not Active | Not Active | Not Active | Not Active | – | –
Nc1ccn([C@@H]2CS[C@H](CO)O2)c(=O)n1 [LAMIVUDINE] | Not Active | Not Active | Not Active | Not Active | Not Active | Not Active | Not Active | Not Active | – | –
CCOC(=O)[C@H](CCc1ccccc1)N[C@H]1CCc2ccccc2N(CC(=O)O)C1=O [BENAZEPRIL] | Not Active | Not Active | Not Active | Not Active | Not Active | Not Active | Not Active | Not Active | – | –
CCN(CC)CCOC(=O)c1ccc(N)cc1 [PROCAINE] | Not Active | Not Active | Not Active | Not Active | Not Active | Not Active | Not Active | Not Active | – | –
C[C@]12CC[C@@H]3c4ccc(O)cc4CC[C@H]3[C@@H]1CC[C@@H]2O [ESTRADIOL] | Not Active | Not Active | Not Active | Not Active | Not Active | Not Active | Not Active | Not Active | – | –
COc1ccc2cc([C@H](C)C(=O)O)ccc2c1 [NAPROXEN] | Not Active | Not Active | Not Active | Not Active | Not Active | Not Active | Not Active | Not Active | – | –

Source: ChEMBL document CHEMBL1909046, “DrugMatrix in vitro pharmacology data”
